Measurements: ChEMBL document CHEMBL2074246, “Distinct groups of multidrug resistance modulating agents are distinguished by competition of P-glycoprotein-specific antibodies” (Biochem Biophys Res Commun, 2004)

Legend:
Format in all cases: functional, cell-based
[1] = target: T1, ATP-dependent translocase ABCB1 (Homo sapiens, UniProt P08183); test: TP_TRANSPORTER: increase in Calcein-AM intracellular accumulation (Calcein-AM: 0.5uM, Nifedipine:125uM) in MDR1-expressing NIH-3T3 cells; conditions: mouse, nih3t3, 125 µM
[2] = target: T1, ATP-dependent translocase ABCB1; test: TP_TRANSPORTER: increase in Calcein-AM intracellular accumulation (Calcein-AM: 0.5 uM, Prednisone: 200 uM) in MDR1-expressing NIH-3T3 cells; conditions: mouse, nih3t3, 200 µM
[3] = target: T1, ATP-dependent translocase ABCB1; test: TP_TRANSPORTER: increase in Calcein-AM intracellular accumulation (Calcein-AM: 0.5 uM, Progesterone: 10 uM) in MDR1-expressing NIH-3T3 cells; conditions: mouse, nih3t3, 10 µM
[4] = target: T1, ATP-dependent translocase ABCB1; test: TP_TRANSPORTER: increase in Calcein-AM intracellular accumulation (Calcein-AM: 0.5 uM, Propranolol: 500 uM) in MDR1-expressing NIH-3T3 cells; conditions: mouse, nih3t3, 500 µM
[5] = target: T1, ATP-dependent translocase ABCB1; test: TP_TRANSPORTER: increase in Calcein-AM intracellular accumulation (Calcein-AM: 0.5 uM, Quinine: 20 uM) in MDR1-expressing NIH-3T3 cells; conditions: mouse, nih3t3, 20 µM
[6] = target: T1, ATP-dependent translocase ABCB1; test: TP_TRANSPORTER: increase in Calcein-AM intracellular accumulation (Calcein-AM: 0.5 uM, Reserpine: 40 uM) in MDR1-expressing NIH-3T3 cells; conditions: mouse, nih3t3, 40 µM
[7] = target: T1, ATP-dependent translocase ABCB1; test: TP_TRANSPORTER: increase in Calcein-AM intracellular accumulation (Calcein-AM: 0.5 uM, Rapamycin: 20 uM) in MDR1-expressing NIH-3T3 cells; conditions: mouse, nih3t3, 20 µM
[8] = target: T1, ATP-dependent translocase ABCB1; test: TP_TRANSPORTER: increase in Calcein-AM intracellular accumulation (Calcein-AM: 0.5 uM, Tetracaine: 320 uM) in MDR1-expressing NIH-3T3 cells; conditions: mouse, nih3t3, 320 µM
[9] = target: T1, ATP-dependent translocase ABCB1; test: TP_TRANSPORTER: increase in Calcein-AM intracellular accumulation (Calcein-AM: 0.5 uM, Trimipramine: 20 uM) in MDR1-expressing NIH-3T3 cells; conditions: mouse, nih3t3, 20 µM
[10] = target: T1, ATP-dependent translocase ABCB1; test: TP_TRANSPORTER: increase in Calcein-AM intracellular accumulation (Calcein-AM: 0.5 uM, Tween 20: 1.4x10-3a%) in MDR1-expressing NIH-3T3 cells; conditions: mouse, nih3t3
[11] = target: T1, ATP-dependent translocase ABCB1; test: TP_TRANSPORTER: increase in Calcein-AM intracellular accumulation (Calcein-AM: 0.5 uM, Valinomycin: 10 uM) in MDR1-expressing NIH-3T3 cells; conditions: mouse, nih3t3, 10 µM
[12] = target: T1, ATP-dependent translocase ABCB1; test: TP_TRANSPORTER: increase in Calcein-AM intracellular accumulation (Calcein-AM: 0.5 uM, PSC-833: 8 uM) in MDR1-expressing NIH-3T3 cells; conditions: mouse, nih3t3, 8 µM
[13] = target: T1, ATP-dependent translocase ABCB1; test: TP_TRANSPORTER: increase in Calcein-AM intracellular accumulation (Calcein-AM: 0.5 uM, Vinblastine: 70 uM) in MDR1-expressing NIH-3T3 cells; conditions: mouse, nih3t3, 70 µM
[14] = target: T1, ATP-dependent translocase ABCB1; test: TP_TRANSPORTER: increase in Calcein-AM intracellular accumulation (Calcein-AM: 0.5 uM, o-Amsacrine: 5 uM) in MDR1-expressing NIH-3T3 cells; conditions: mouse, nih3t3, 5 µM
[15] = target: T1, ATP-dependent translocase ABCB1; test: TP_TRANSPORTER: increase in Calcein-AM intracellular accumulation (Calcein-AM: 0.5 uM, Ivermectin: 20 uM) in MDR1-expressing NIH-3T3 cells; conditions: mouse, nih3t3, 20 µM

T1 sequence (P08183 whole entry): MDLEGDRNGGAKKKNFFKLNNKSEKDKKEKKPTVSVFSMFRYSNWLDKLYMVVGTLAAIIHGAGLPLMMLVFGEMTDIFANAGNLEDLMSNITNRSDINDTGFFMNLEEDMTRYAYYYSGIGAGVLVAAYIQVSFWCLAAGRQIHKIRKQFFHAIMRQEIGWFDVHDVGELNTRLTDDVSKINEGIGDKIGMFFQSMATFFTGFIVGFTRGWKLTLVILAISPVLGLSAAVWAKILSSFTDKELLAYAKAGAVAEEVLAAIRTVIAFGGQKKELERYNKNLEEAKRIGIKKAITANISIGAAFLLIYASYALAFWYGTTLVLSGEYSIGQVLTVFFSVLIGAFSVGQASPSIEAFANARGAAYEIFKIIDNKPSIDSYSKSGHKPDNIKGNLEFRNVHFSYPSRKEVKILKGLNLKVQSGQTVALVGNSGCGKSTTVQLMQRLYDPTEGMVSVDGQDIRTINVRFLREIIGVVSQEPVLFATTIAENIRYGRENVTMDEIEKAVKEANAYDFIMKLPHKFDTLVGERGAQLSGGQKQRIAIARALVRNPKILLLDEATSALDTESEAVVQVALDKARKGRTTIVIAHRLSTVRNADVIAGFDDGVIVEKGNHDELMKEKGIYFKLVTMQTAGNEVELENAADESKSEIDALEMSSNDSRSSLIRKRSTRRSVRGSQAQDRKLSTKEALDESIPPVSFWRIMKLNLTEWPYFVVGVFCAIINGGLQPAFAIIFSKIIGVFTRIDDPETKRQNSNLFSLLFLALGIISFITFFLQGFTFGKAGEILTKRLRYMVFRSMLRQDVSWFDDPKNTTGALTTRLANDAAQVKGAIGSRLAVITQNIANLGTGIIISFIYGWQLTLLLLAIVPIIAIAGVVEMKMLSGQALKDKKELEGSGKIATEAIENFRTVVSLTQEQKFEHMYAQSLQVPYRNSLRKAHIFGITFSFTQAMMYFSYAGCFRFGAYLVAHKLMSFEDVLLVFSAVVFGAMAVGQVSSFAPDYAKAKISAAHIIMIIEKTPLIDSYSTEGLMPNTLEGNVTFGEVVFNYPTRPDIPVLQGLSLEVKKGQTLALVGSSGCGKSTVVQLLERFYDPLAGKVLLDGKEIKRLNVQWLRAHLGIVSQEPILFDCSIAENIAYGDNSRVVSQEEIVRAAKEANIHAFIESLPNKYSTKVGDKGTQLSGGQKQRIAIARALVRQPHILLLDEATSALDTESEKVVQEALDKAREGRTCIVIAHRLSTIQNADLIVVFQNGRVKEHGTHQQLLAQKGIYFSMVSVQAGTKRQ

COC(=O)C1=C(C)NC(C)=C(C(=O)OC)C1c1ccccc1[N+](=O)[O-] [NIFEDIPINE]
Activity [1]: inhibitor [+]

C[C@]12C=CC(=O)C=C1CC[C@@H]1[C@@H]2C(=O)C[C@@]2(C)[C@H]1CC[C@]2(O)C(=O)CO [PREDNISONE]
Activity [2]: inhibitor [+]

CC(=O)[C@H]1CC[C@H]2[C@@H]3CCC4=CC(=O)CC[C@]4(C)[C@H]3CC[C@]12C [PROGESTERONE]
Activity [3]: inhibitor [+]

CC(C)NCC(O)COc1cccc2ccccc12 (stereo not given) [PROPRANOLOL]
Activity [4]: inhibitor [+]

C=C[C@H]1C[N@@]2CC[C@H]1C[C@H]2[C@H](O)c1ccnc2ccc(OC)cc12 [QUININE]
Activity [5]: inhibitor [+]

COC(=O)[C@H]1[C@H]2C[C@@H]3c4[nH]c5cc(OC)ccc5c4CCN3C[C@H]2C[C@@H](OC(=O)c2cc(OC)c(OC)c(OC)c2)[C@@H]1OC [RESERPINE]
Activity [6]: inhibitor [+]

CO[C@H]1C[C@@H]2CC[C@@H](C)[C@@](O)(O2)C(=O)C(=O)N2CCCC[C@H]2C(=O)O[C@H]([C@H](C)C[C@@H]2CC[C@@H](O)[C@H](OC)C2)CC(=O)[C@H](C)/C=C(\C)[C@@H](O)[C@@H](OC)C(=O)[C@H](C)C[C@H](C)/C=C/C=C/C=C/1C [SIROLIMUS]
Activity [7]: inhibitor [+]

CCCCNc1ccc(C(=O)OCCN(C)C)cc1 [TETRACAINE]
Activity [8]: inhibitor [+]

CC(CN(C)C)CN1c2ccccc2CCc2ccccc21 (stereo not given) [TRIMIPRAMINE]
Activity [9]: inhibitor [+]

CCCCCCCCCCCC(=O)OCCOCCOCCOCCOCCOCCOCCOCCOCCOCCOCCOCCOCCOCCOCCOCCOCCOCCOCCOCCOCC(OCCOCCOCCOCCOCCOCCOCCOCCOCCOCCOCCOCCOCCOCCOCCOCCOCCOCCOCCOCCO)C1OCC(OCCOCCOCCOCCOCCOCCOCCOCCOCCOCCOCCOCCOCCOCCOCCOCCOCCOCCOCCOCCO)C1OCCOCCOCCOCCOCCOCCOCCOCCOCCOCCOCCOCCOCCOCCOCCOCCOCCOCCOCCOCCO (stereo not given) [TWEEN 20]
Activity [10]: inhibitor [+]

CC(C)[C@@H]1NC(=O)[C@H](C)OC(=O)[C@@H](C(C)C)NC(=O)[C@@H](C(C)C)OC(=O)[C@H](C(C)C)NC(=O)[C@H](C)OC(=O)[C@@H](C(C)C)NC(=O)[C@@H](C(C)C)OC(=O)[C@H](C(C)C)NC(=O)[C@H](C)OC(=O)[C@@H](C(C)C)NC(=O)[C@@H](C(C)C)OC1=O [VALINOMYCIN]
Activity [11]: inhibitor [+]

C/C=C/C[C@@H](C)C(=O)[C@H]1C(=O)N[C@@H](C(C)C)C(=O)N(C)CC(=O)N(C)[C@@H](CC(C)C)C(=O)N[C@@H](C(C)C)C(=O)N(C)[C@@H](CC(C)C)C(=O)N[C@@H](C)C(=O)N[C@H](C)C(=O)N(C)[C@@H](CC(C)C)C(=O)N(C)[C@@H](CC(C)C)C(=O)N(C)[C@@H](C(C)C)C(=O)N1C [VALSPODAR]
Activity [12]: inhibitor [+]

CC[C@]1(O)C[C@@H]2CN(CCc3c([nH]c4ccccc34)[C@@](C(=O)OC)(c3cc4c(cc3OC)N(C)[C@H]3[C@@](O)(C(=O)OC)[C@H](OC(C)=O)[C@]5(CC)C=CCN6CC[C@]43[C@@H]65)C2)C1 [VINBLASTINE]
Activity [13]: inhibitor [+]

COc1cc(Nc2c3ccccc3nc3ccccc23)ccc1NS(C)(=O)=O [o-Amsacrine]
Activity [14]: inhibitor [+]

IVERMECTIN
Activity [15]: inhibitor [+]
